According to patent publication US9686985B2, “Fungicide N-cycloalkyl-N-bicyclicmethylene-carboxamide derivatives” (BAYER INTELLECTUAL PROPERTY GMBH, priority 2012, dated 2017):

Columns and labels:
[1] = log P by HPLC on reversed-phase column (EEC Directive 79/831 Annex V.A8); type: physicochemical; settings: for logP: Table 1, HPLC C18, 40° C., 0.1% aqueous formic acid and acetonitrile gradient
Method: In table 1, the log P values were determined in accordance with EEC Directive 79/831 Annex V.A8 by HPLC (High Performance Liquid Chromatography) on a reversed-phase column (C 18), using the method described below: Temperature: 40° C.; Mobile phases: 0.1% aqueous formic acid and acetonitrile; linear gradient from 10% acetonitrile to 90% acetonitrile. Calibration was carried out using unbranched alkan-2-ones (comprising 3 to 16 carbon atoms) with known log P values (determination of the log P values by the retention times using linear interpolation between two successive alkanones). lambda-max-values were determined using UV-spectra from 200 nm to 400 nm and the peak values of the chromatographic signals.

[2] = system: Sphaerotheca fuliginea; assay: Example B: in vivo preventive test on Sphaerotheca fuliginea (powdery mildew on cucurbits); settings: table B; 500 ppm; gherkin plants; grading 12 days after contamination
Method: Example B: In Vivo Preventive Test on Sphaerotheca fuliginea (Powdery Mildew on Cucurbits) […] Gherkin plants (“Vert petit de Paris” variety), sown in starter cups on a 50/50 peat soil-pozzolana substrate and grown at 24° C., are treated at the Z11 cotyledon stage by spraying with the active ingredient prepared as described above. Plants, used as controls, are treated with the mixture of acetone/tween/DMSO/water not containing the active material. After 24 hours, the plants are contaminated by spraying the cotyledons with an aqueous suspension of Sphaerotheca fuliginea spores (100 000 spores per mL). The spores are collected from infected plants. The contaminated gherkin plants are incubated at about 20° C. and at 70-80% relative humidity. Grading (% of efficacy) is carried out 12 days after the contamination, in comparison with the control plants.

[3] = system: Uromyces appendiculatus; assay: Example G: in vivo preventive test on Uromyces appendiculatus (bean rust); settings: bean plants
Method: Example G: In Vivo Preventive Test on Uromyces appendiculatus (Bean Rust) […] Bean plants (“Saxa” variety), sown in starter cups on a 50/50 peat soil pozzolana substrate and grown at 24° C., are treated at the 2 leaf stage (9 cm height) by spraying with the active ingredient prepared as described above. Plants, used as controls, are treated with the mixture of acetone/tween/DMSO/water not containing the active material. After 24 hours, the plants are contaminated by spraying the leaves with an aqueous suspension of Uromyces appendiculatus spores (150 000 spores per mL). The spores are collected from infected plants and are suspended in water containing 2.5 mL/L of Tween 80 at 10%. The contaminated bean plants are incubated for 24 hours at 20° C. and at 100% relative humidity, and then for 10 days at 20° C. and at 70-80% relative humidity. Grading (% of efficacy) is carried out 11 days after the contamination, in comparison with the control plants.

[4] = system: Septoria tritici; assay: Example L: in vivo preventive test on Septoria tritici (wheat); settings: table L; 500 ppm; wheat plants; grading 24 days after contamination
Method: Example L: In Vivo Preventive Test on Septoria tritici (Wheat) […] Wheat plants (“Scipion” variety), sown in starter cups on a 50/50 peat soil pozzolana substrate and grown at 22° C., are treated at the 1 leaf stage (10 cm height) by spraying with the active ingredient prepared as described above. Plants, used as controls, are treated with the mixture of acetone/tween/DMSO/water not containing the active material. After 24 hours, the plants are contaminated by spraying the leaves with an aqueous suspension of cryopreserved Septoria tritici spores (500 000 spores per mL). The contaminated wheat plants are incubated for 72 hours at 18° C. and at 100% relative humidity, and then for 21 days at 90% relative humidity. Grading (% of efficacy) is carried out 24 days after the contamination, in comparison with the control plants.

[5] = system: Puccinia recondita; assay: Example R: in vivo preventive test on Puccinia recondita (brown rust on wheat); settings: table R; 500 ppm; wheat plants; grading 12 days after contamination
Method: Example R: In Vivo Preventive Test on Puccinia recondita (Brown Rust on Wheat) […] Wheat plants (“Scipion” variety), sown in starter cups on a 50/50 peat soil pozzolana substrate and grown at 22° C., are treated at the 1 leaf stage (10 cm height) by spraying with the active ingredient prepared as described above. Plants, used as controls, are treated with the mixture of acetone/tween/DMSO/water not containing the active material. After 24 hours, the plants are contaminated by spraying the leaves with an aqueous suspension of Puccinia recondita spores (100 000 spores per mL). The spores are collected from an infected plant and are suspended in water containing 2.5 mL/L of Tween 80 at 10%. The contaminated wheat plants are incubated for 24 hours at 20° C. and at 100% relative humidity, and then for 10 days at 20° C. and at 70-80% relative humidity. Grading (% of efficacy) is carried out 12 days after the contamination, in comparison with the control plants.

[6] = system: Botrytis cinerea; assay: Example S: in vivo preventive test on Botrytis cinerea (grey mould); settings: table S; 500 ppm; gherkin plants; grading 4 to 5 days after contamination
Method: Example S: In Vivo Preventive Test on Botrytis cinerea (Grey Mould) […] Gherkin plants (“Vert petit de Paris” variety), sown in starter cups on a 50/50 peat soil pozzolana substrate and grown at 24° C., are treated at the Z11 cotyledon stage by spraying with the active ingredient prepared as described above. Plants, used as controls, are treated with the mixture of acetone/tween/DMSO/water not containing the active material. After 24 hours, the plants are contaminated by spraying the cotyledons with an aqueous suspension of cryopreserved Botrytis cinerea spores (50 000 spores per mL). The spores are suspended in a nutrient solution composed of 10 g/L of PDB, 50 g/L of D-Fructose, 2 g/L of NH4NO3 and 1 g/L of KH2PO4. The contaminated gherkin plants are incubated at 17° C. and at 90% relative humidity. Grading (% of efficacy) is carried out 4 to 5 days after the contamination, in comparison with the control plants.

[7] = system: Alternaria brassicae; assay: Example D: in vivo preventive test on Alternaria brassicae (leaf spot on radish); settings: table D; 500 ppm; radish plants; grading 6 days after contamination
Method: Example D: In Vivo Preventive Test on Alternaria brassicae (Leaf Spot on Radish) […] Radish plants (“Pernod Clair” variety), sown in starter cups on a 50/50 peat soil pozzolana substrate and grown at 17° C., are treated at the cotyledon stage by spraying with the active ingredient prepared as described above. Plants, used as controls, are treated with the mixture of acetone/tween/DMSO/water not containing the active material. After 24 hours, the plants are contaminated by spraying the cotyledons with an aqueous suspension of Alternaria brassicae spores (50 000 spores per mL). The spores are collected from a 15-day-old culture. The contaminated radish plants are incubated at 20° C. and at 100% relative humidity. Grading (% of efficacy) is carried out 6 days after the contamination, in comparison with the control plants.

[8] = system: Pyrenophora teres; assay: Example N: in vivo preventive test on Pyrenophora teres (barley); settings: table N; 500 ppm; barley plants; grading 14 days after contamination
Method: Example N: In Vivo Preventive Test on Pyrenophora teres (Barley) […] Barley plants (“Plaisant” variety), sown in starter cups on a 50/50 peat soil pozzolana substrate and grown at 22° C., are treated at the 1 leaf stage (10 cm height) by spraying with the active ingredient prepared as described above. Plants, used as controls, are treated with the mixture of acetone/tween/DMSO/water not containing the active material. After 24 hours, the plants are contaminated by spraying the leaves with an aqueous suspension of Pyrenophora teres spores (12 000 spores per mL). The spores are collected from a 12-day-old culture. The contaminated barley plants are incubated for 48 hours at 20° C. and at 100% relative humidity, and then for 12 days at 20° C. at 70-80% relative humidity. Grading (% of efficacy) is carried out 14 days after the contamination, in comparison with the control plants.

[9] = table G1, 500 ppm, grading 11 days after contamination

Compound	logP [1]	chromatographic logP [1]	Efficacy [2]	Efficacy [3, 9]	Efficacy [4]	Efficacy [5]	Efficacy [6]	Efficacy [7]	Efficacy ([3]; table G2, dose 100 ppm)	Efficacy ([3]; table G2, dose 500 ppm)	Efficacy [8]
Cn1nc(C(F)F)c(C(=O)N(CC2CCc3ccc(C(F)(F)F)cc32)C2CC2)c1Cl (stereo not shown) [I.16]	4.04	–	100%	100%	98%	88%	100%	–	–	–	–
Cn1nc(C(F)F)c(C(=O)N(CC2CCc3cc(Cl)ccc32)C2CC2)c1Cl (stereo not shown) [I.13]	3.99	–	78%	–	–	–	–	75%	–	–	86%
Cc1ccc2c(c1)CCC2CN(C(=O)c1c(C(F)F)nn(C)c1Cl)C1CC1 (stereo not shown) [I.5]	3.94	–	100%	–	–	75%	–	–	–	–	86%
Cn1nc(C(F)F)c(C(=O)N(CC2CC(C)(C)c3ccccc32)C2CC2)c1Cl (stereo not shown) [I.10]	4.08	–	100%	99%	79%	88%	–	92%	–	–	86%
Cn1nc(C(F)F)c(C(=O)N(CC2CCc3c(Cl)cc(Cl)cc32)C2CC2)c1F (stereo not shown) [I.18]	4.39	–	100%	100%	93%	94%	–	100%	–	–	100%
COc1cccc2c1CCCC2CN(C(=S)c1c(C(F)F)nn(C)c1F)C1CC1 (stereo not shown) [I.27]	4.46	–	80%	–	97%	–	–	93%	–	–	71%
Cn1nc(C(F)F)c(C(=O)N(CC2CCc3c(Cl)cc(Cl)cc32)C2CC2)c1Cl (stereo not shown) [I.19]	4.59	–	–	100%	–	88%	–	92%	–	–	71%

Further lines, with some results ahead:

logP [1]	chromatographic logP [1]	Compound	Efficacy [2]	Efficacy [3, 9]	Efficacy [4]	Efficacy [5]	Efficacy [6]	Efficacy [7]	Efficacy ([3]; table G2, dose 100 ppm)	Efficacy ([3]; table G2, dose 500 ppm)	Efficacy [8]
3.39	–	Cn1nc(C(F)F)c(C(=O)N(CC2CCc3c(F)cccc32)C2CC2)c1F (stereo not shown) [I.7]	100%	100%	93%	94%	–	97%	98%	100%	97%
4.09	–	Cn1nc(C(F)F)c(C(=O)N(CC2CCCc3cccc(Cl)c32)C2CC2)c1F (stereo not shown) [I.28]	100%	88%	100%	–	100%	100%	–	–	94%
3.35	–	Cn1nc(C(F)F)c(C(=O)N(CC2CCc3ccccc32)C2CC2)c1F (stereo not shown) [I.2]	100%	100%	100%	100%	–	100%	88%	100%	100%
3.44	–	Cn1nc(C(F)F)c(C(=O)N(CC2CCSc3ccc(F)cc32)C2CC2)c1F (stereo not shown) [I.35]	80%	100%	–	78%	100%	88%	–	–	98%
3.21	–	Cn1nc(C(F)F)c(C(=O)N(CC2CSCc3ccccc32)C2CC2)c1F (stereo not shown) [I.34]	90%	–	93%	–	100%	100%	–	–	94%
3.83	–	Cn1nc(C(F)F)c(C(=O)N(CC2CCc3cc(Cl)ccc32)C2CC2)c1F (stereo not shown) [I.12]	100%	100%	93%	81%	–	100%	19%	100%	100%
3.51	–	Cn1nc(C(F)F)c(C(=O)N(CC2CCc3ccccc32)C2CC2)c1Cl (stereo not shown) [I.1]	83%	72%	–	88%	–	–	–	–	86%
–	3.65	COc1cccc2c1CCCC2CN(C(=O)c1c(C(F)F)nn(C)c1F)C1CC1 (stereo not shown) [I.26, N-cyclopropyl-3-(difluoromethyl)-5-fluoro-N-[(5-methoxy-1,2,3,4-tetrahydronaphthalen-1-yl)methyl]-1-methyl-1H-pyrazole-4-carboxamide]	100%	–	–	–	100%	100%	–	–	100%
3.87	–	Cc1cccc2c1CCC2CN(C(=O)c1c(C(F)F)nn(C)c1Cl)C1CC1 (stereo not shown) [I.4]	–	–	79%	–	–	75%	–	–	71%
3.76	–	Cc1ccc2c(c1)CCC2CN(C(=O)c1c(C(F)F)nn(C)c1F)C1CC1 (stereo not shown) [I.6]	100%	100%	97%	100%	–	97%	69%	100%	100%
3.94	–	Cn1nc(C(F)F)c(C(=O)N(CC2CC(C)(C)c3ccccc32)C2CC2)c1F (stereo not shown) [I.9]	100%	–	97%	100%	–	100%	100%	–	97%
